Reference: patent US12077483B2, “Modified amine lipids” (Intellia Therapeutics, Inc., priority 2018, dated 2024)

Experiments:
[1] = pKa of amine lipid by TNS fluorescence; assay type: physicochemical; settings: probe TNS (6-(p-toluidino)-2-naphthalenesulfonic acid sodium salt), unformulated amine lipid in ethanol, sodium phosphate buffers -9.0
Procedure, shortened: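 Unformulated amine lipid, about 100 μM final, in 0.1 M sodium phosphate buffers spanning pH 4.5–9.0 with TNS. Fluorescence read at ex 321/em 448 nm; normalized data fitted sigmoidally to give pKa.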

[2] = LNP average particle size and polydispersity by dynamic light scattering; assay type: physicochemical; settings: LNP with the compound as amine lipid
Procedure, shortened: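 LNPs were diluted in PBS to a count rate of about 200-400 kcps and measured by DLS on a Zetasizer. Size is the intensity-weighted Z-average diameter, reported with number-average diameter, and the polydispersity index describes the spread of sizes around the mean.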

[3] = RNA encapsulation efficiency of LNP (Ribogreen fluorescence assay); assay type: physicochemical; settings: LNP with the compound as amine lipid
Procedure, shortened: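 LNP samples diluted in 1× TE with or without 0.2% Triton-X 100 for total or free RNA, stained ~10 min at room temperature in the dark with RiboGreen; fluorescence ex 488/em 525 nm against RNA standard curves. Encapsulation efficiency = (Total RNA−Free RNA)/Total RNA.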

mouse TTR = assay: Serum TTR ELISA in mice after LNP delivery; assay type: in vivo; settings: mouse serum, relative to TSS control of same experiment
Procedure, shortened: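 Female CD-1 mice received LNP at 0.1 mpk unless noted; serum was collected 6 or 7 days later. Total serum TTR was measured by mouse prealbumin ELISA at 10,000- and/or 2,500-fold dilution and is expressed as a percentage of vehicle control.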

[4] = Expt. 8, composition ratio (mol %) 50/9/38/3 for Cmpnd 49, 50/10/38.5/1.5 for the others
[5] = Expt. 7, composition ratio (mol %) 50/9/38/3 for Cmpnd 49, 50/10/38.5/1.5 for the others
[6] = Expt. 5, composition ratio (mol %) 50/10/38.5/1.5
[7] = Expt. 6, composition ratio (mol %) 50/9/38/3 for Cmpnd 49, 50/10/38.5/1.5 for the others
[8] = Expt. 9, composition ratio (mol %) 50/9/38/3 for Cmpnd 49, 50/10/38.5/1.5 for the others
[9] = Expt. 10, composition ratio (mol %) 50/9/38/3 for Cmpnd 49, 50/10/38.5/1.5 for the others

SMILES | pKa [1] | Serum TTR % TSS (mouse TTR; dose 0.03 mpk) [% TSS] | Serum TTR % TSS (mouse TTR; dose 0.1 mpk) [% TSS] | Num Ave Size (nm) [2, 6] [nm] | PDI [2, 6] | Z-Ave Size (nm) [2, 6] [nm] | Encapsulation (%) [3, 6] [%] | Num Ave Size (nm) [2, 9] [nm] | PDI [2, 9] | Z-Ave Size (nm) [2, 9] [nm] | Encapsulation (%) [3, 9] [%] | other results
CCCCC/C=C\C/C=C\CCCCCCCC(=O)OCC(COC(=O)CCCCCCC/C=C\C/C=C\CCCCC)OC(=O)CCC(CCCCCCC)OC(=O)NCC1CCCN1C (stereo not shown) [Compound 74, 2-((4-((((1-methylpyrrolidin-2-yl)methyl)carbamoyl)oxy)undecanoyl)oxy)propane-1,3-diyl (9Z,9′Z,12Z,12′Z)-bis(octadeca-9,12-dienoate)] | 6.44 | 100.54 | 110.06 | – | – | – | – | – | – | – | – | Num Ave Size (nm) [2, 4]: 74.58 nm; PDI [2, 4]: 0.024; Z-Ave Size (nm) [2, 4]: 92.14 nm; Encapsulation (%) [3, 4]: 99%
CCCCC/C=C\C/C=C\CCCCCCCC(=O)OCC(COC(=O)CCCCCCC/C=C\C/C=C\CCCCC)OC(=O)CCC(CCCCCCC)OC(=O)OCCCN1CCCC1 (stereo not shown) [Compound 75, 2-((4-(((3-(pyrrolidin-1-yl)propoxy)carbonyl)oxy)undecanoyl)oxy)propane-1,3-diyl (9Z,9′Z,12Z,12′Z)-bis(octadeca-9,12-dienoate)] | 6.17 | 45.098 | 11.996 | – | – | – | – | – | – | – | – | Num Ave Size (nm) [2, 5]: 73.46 nm; PDI [2, 5]: 0.02; Z-Ave Size (nm) [2, 5]: 89.78 nm; Encapsulation (%) [3, 5]: 98%
CCCCC/C=C\C/C=C\CCCCCCCC(=O)OCC(COC(=O)CCCCCCC/C=C\C/C=C\CCCCC)OC(=O)CCC(CCCCCC)OC(=O)NCCN1CCC1 (stereo not shown) [Compound 77, 2-((4-(((2-(azetidin-1-yl)ethyl)carbamoyl)oxy)decanoyl)oxy)propane-1,3-diyl (9Z,9′Z,12Z,12′Z)-bis(octadeca-9,12-dienoate)] | 7.23 | 68.3 | 80.6 | 78 | 0.08 | 104.00 | 98 | – | – | – | – | –
CCCCC/C=C\C/C=C\CCCCCCCC(=O)OCC(COC(=O)CCCCCCC/C=C\C/C=C\CCCCC)OC(=O)CCC(CCCCCC)OC(=O)NCCN1CCCCC1 (stereo not shown) [Compound 78, 2-((4-(((2-(piperidin-1-yl)ethyl)carbamoyl)oxy)decanoyl)oxy)propane-1,3-diyl (9Z,9′Z,12Z,12′Z)-bis(octadeca-9,12-dienoate)] | 5.93 | 99.8 | 66.5 | 59 | 0.13 | 91.00 | 97 | – | – | – | – | –
CCCCC/C=C\C/C=C\CCCCCCCC(=O)OCC(COC(=O)CCCCCCC/C=C\C/C=C\CCCCC)OC(=O)CCC(CCCCCC)OC(=O)NC(C)(C)CN1CCCC1 (stereo not shown) [Compound 79, 2-((4-(((2-methyl-1-(pyrrolidin-1-yl)propan-2-yl)carbamoyl)oxy)decanoyl)oxy)propane-1,3-diyl (9Z,9′Z,12Z,12′Z)-bis(octadeca-9,12-dienoate)] | 4.96 | 86.9 | 100.4 | 55 | 0.09 | 75.00 | 98 | – | – | – | – | –
CCCCC/C=C\C/C=C\CCCCCCCC(=O)OCC(COC(=O)CCCCCCC/C=C\C/C=C\CCCCC)OC(=O)CCC(CCCCCC)OC(=O)NC1CN(C)C1 (stereo not shown) [Compound 84, 2-((4-(((1-methylazetidin-3-yl)carbamoyl)oxy)decanoyl)oxy)propane-1,3-diyl (9Z,9′Z,12Z,12′Z)-bis(octadeca-9,12-dienoate)] | 7.39 | 80.3 | 73.2 | 75 | 0.03 | 91.00 | 99 | – | – | – | – | –
CCCCC/C=C\C/C=C\CCCCCCCC(=O)OCC(COC(=O)CCCCCCC/C=C\C/C=C\CCCCC)OC(=O)C1(C(CCCCCCCC)OC(=O)NCCN(C)CC)CC1 (stereo not shown) [Compound 86, 2-((1-(1-(((2-(ethyl(methyl)amino)ethyl)carbamoyl)oxy)nonyl)cyclopropane-1-carbonyl)oxy)propane-1,3-diyl (9Z,9′Z,12Z,12′Z)-bis(octadeca-9,12-dienoate)] | 6.23 | 93.10 | 28.80 | – | – | – | – | – | – | – | – | Num Ave Size (nm) [2, 7]: 68 nm; PDI [2, 7]: 0.04; Z-Ave Size (nm) [2, 7]: 87.00 nm; Encapsulation (%) [3, 7]: 98%
CCCCC/C=C\C/C=C\CCCCCCCC(=O)OCC(COC(=O)CCCCCCC/C=C\C/C=C\CCCCC)OC(=O)CC[C@H](CCCCCC)OC(=O)NCCN1CCCC1 [Compound 89, 2-(((S)-4-(((2-(pyrrolidin-1-yl)ethyl)carbamoyl)oxy)decanoyl)oxy)propane-1,3-diyl (9Z,9′Z,12Z,12′Z)-bis(octadeca-9,12-dienoate)] | 6.76 | 48.65 | – | – | – | – | – | – | – | – | – | Num Ave Size (nm) [2, 8]: 73 nm; PDI [2, 8]: 0.01; Z-Ave Size (nm) [2, 8]: 88 nm; Encapsulation (%) [3, 8]: 98%
CCCCC/C=C\C/C=C\CCCCCCCC(=O)OCC(COC(=O)CCCCCCC/C=C\C/C=C\CCCCC)OC(=O)CC[C@@H](CCCCCC)OC(=O)NCCN1CCCC1 [Compound 90, 2-(((R)-4-(((2-(pyrrolidin-1-yl)ethyl)carbamoyl)oxy)decanoyl)oxy)propane-1,3-diyl (9Z,9′Z,12Z,12′Z)-bis(octadeca-9,12-dienoate)] | 6.8 | 59.95 | – | – | – | – | – | – | – | – | – | Num Ave Size (nm) [2, 8]: 81 nm; PDI [2, 8]: 0.02; Z-Ave Size (nm) [2, 8]: 99 nm; Encapsulation (%) [3, 8]: 98%
CCCCC/C=C\C/C=C\CCCCCCCC(=O)OCC(COC(=O)CCCCCCC/C=C\C/C=C\CCCCC)OC(=O)CCC(CCCCCCCC)OC(=O)NCCN(C)C (stereo not shown) [Compound 91, 2-((4-(((2-(dimethylamino)ethyl)carbamoyl)oxy)dodecanoyl)oxy)propane-1,3-diyl (9Z,9′Z,12Z,12′Z)-bis(octadeca-9,12-dienoate)] | 6.48 | 89 | – | – | – | – | – | 82 | 0.01 | 97 | 98 | –
CCCCC/C=C\C/C=C\CCCCCCCC(=O)OCC(COC(=O)CCCCCCC/C=C\C/C=C\CCCCC)OC(=O)CCC(CCCCCCCC)OC(=O)OC1CCN(C)CC1 (stereo not shown) [Compound 92, 2-((4-((((1-methylpiperidin-4-yl)oxy)carbonyl)oxy)dodecanoyl)oxy)propane-1,3-diyl (9Z,9′Z,12Z,12′Z)-bis(octadeca-9,12-dienoate)] | 5.96 | 120 | – | – | – | – | – | 51 | 0.06 | 67 | 98 | –
CCCCC/C=C\C/C=C\CCCCCCCC(=O)OCC(COC(=O)CCCCCCC/C=C\C/C=C\CCCCC)OC(=O)CCC(CCCCCCCC)OC(=O)NCCN1CCC1 (stereo not shown) [Compound 93, 2-((4-(((2-(azetidin-1-yl)ethyl)carbamoyl)oxy)dodecanoyl)oxy)propane-1,3-diyl (9Z,9′Z,12Z,12′Z)-bis(octadeca-9,12-dienoate)] | 6.96 | 100 | – | – | – | – | – | 86 | 0.01 | 103 | 98 | –
CCCCC/C=C\C/C=C\CCCCCCCC(=O)OCC(COC(=O)CCCCCCC/C=C\C/C=C\CCCCC)OC(=O)CCC(CCCCCCCC)OC(=O)OCCCCN(CC)CC (stereo not shown) [Compound 95, 2-((4-(((4-(diethylamino)butoxy)carbonyl)oxy)dodecanoyl)oxy)propane-1,3-diyl (9Z,9′Z,12Z,12′Z)-bis(octadeca-9,12-dienoate)] | 6.15 | 77 | – | – | – | – | – | 88 | 0.01 | 105 | 98 | –
